Data set [1] concerns HCV replicon RNA replication. Description: HCV replicon assay (quantification of replicon RNA, Northern blot / Taqman kinetic PCR). The data set is classed as cell-based. The following applies: Hepatitis C virus, Huh-7, 72 h. As for the experimental part:
Assay Method: The activity of the compounds was assayed using an adaptation of the method reported by Lohmann et al [V. Lohmann et al., Science, 1999, 285, 110-113].
The HCV replicon-containing cell line is used for the identification of small molecules that are able to inhibit the replication of the replicon RNA. Since the replicon RNA replication mimics the replication of the HCV RNA in infected hepatocytes, it is believed that those small molecules that have the above property are interesting for further development as anti-HCV drugs.
The inhibition of the HCV replicon RNA replication will lead to a decrease of the replicon RNA in the cell, which can be measured using a method that specifically quantifies this RNA.
Northern blot: One method for quantification of this RNA uses the standard Northern blot known to any person skilled in the art.
Kinetic PCR: A second assay for the quantification of replicon RNA is based on the amplification of the replicon RNA that remains in the cell, after incubation of the cells with a proper concentration of the small molecules. This method involves the reverse transcription of the replicon RNA to the corresponding complementary DNA (cDNA), followed by amplification of the cDNA using the Taqman Kinetic PCR technology (PE Biosystems). This consists of hybridisation of the cDNA with a complementary reporter oligonucleotide (probe), containing a combined fluorescent dye and a quencher dye. Amplification of the DNA sequence containing the hybridised reporter probe, using flanking oligonucleotide primers will lead to the separation of the fluorescent dye from the quencher dye. This will result in an increase of the fluorescence during each amplification cycle.
The neomycin phosphotransferase gene sequence that is present in the replicon RNA was chosen for amplification using specifically designed oligonucleotide primers. To control for (a) cell number that can vary depending on the toxicity or cytostatic effect of the small molecules, and (b) for errors during total RNA extraction, amplification of the host β-actin gene is used for normalisation.
The accumulation of the PCR products during the reaction is monitored directly by measuring the increase in fluorescence of the reporter dye. The amount of HCV replicon RNA (and β-actin RNA) originally present in the total RNA extracted from the cells is then expressed as a threshold cycle, e.g. the cycle at which there is a statistically significant increase in the fluorescence above the background.
For this procedure, HCV replicon-containing human hepatoma Huh7 cells (9-13) in growth medium (DMEM) containing 5% FCS are plated in a 96-well plate at 5×10^3 cells per well, and the plate incubated overnight. 24 hours later, different dilutions in 0.1 ml growth medium of chemical compounds were added to the wells, and the plate further incubated at 37° C. for three days. Total RNA coming from each well is extracted using the RNeasy™ procedure (Qiagen manufacturer instructions), and the total RNA is eluted in a final volume of 0.13 ml. Next, a 2 μl sample of the total RNA is used for convertion into cDNA using a reverse transcription (RT) step. A RT mastermix containing 1 μl 10× Taqman RT buffer, 2.2 μl 25 mM MgCl2 (5.5 mM final conc.), 2 μl dNTP mix (500 μM each), 0.5 μl random hexamer primers (2.5 μM), 0.2 μl RNase inhibitor (0.4 u/μl ), 0.25 μl RT (1.25 u/μl ), 1.85 μl H2O, was distributed in a 96-well plate and 2 μl total RNA was added to each well.
The RT reaction is performed by incubation of the plate 10 min at 25° C., 30 min at 48° C., 5 min at 95° C. and cooling to 4° C. The cDNA samples are then stored at −20° C. or directly used for the PCR reaction. […]
A general note: Replicon systems follow genome replication, usually without infectious particles.

The test system of data set [2] is HCV replicon RNA replication. Briefly: HCV replicon assay, Renilla luciferase reporter. Format: cell-based. Particulars: Hepatitis C virus, Huh-7, 72 h; Renilla luciferase HCV replicon cells (2209-23, Huh7), three days incubation; concentration reducing luciferase activity/replicon level by 50%.
[3] abbreviates: HCV replicon-containing human hepatoma Huh7 cells (9-13), three days incubation, concentration reducing replicon RNA levels by 50%, read-out: IC50.

Consider 31 molecules from patent publication US20040110718A1, “Anti-HCV nucleoside derivatives” (priority 2000, published 2004).

On to `OC[C@H]1O[C@@H](n2cnc3c(N4CCc5ccccc5C4)ncnc32)[C@H](O)[C@@H]1O` [Example 57, 9-(β-D-Ribofuranosyl)-6-(1,2,3,4-tetrahydro-2-isoquinolyl)purine], for which the IC50 (as a rule, the midpoint of a concentration-inhibition curve) in data set [1] (setting [3]) was found to be 0.1 µM.
For the molecule `CCNc1ncnc2c1ncn2[C@@H]1O[C@H](CO)[C@@H](O)[C@H]1O` [Example 252, 6-ethylamino-9-(β-D-ribofuranosyl)purine], the IC50 in data set [2] is 14 µM.
As for `C#CCNc1ncnc2c1ncn2[C@@H]1O[C@H](CO)[C@@H](O)[C@H]1O` [Example 81, 6-(2-Propynyl)amino-9-(β-D-ribofuranosyl)purine], in data set [1] (setting [3]), the IC50 is 3.8 µM.
Take `OC[C@H]1O[C@@H](n2cnc3c(-c4ccsc4)ncnc32)[C@H](O)[C@@H]1O` [Example 181, 9-(β-D-Ribofuranosyl)-6-(3-thienyl)purine]: the melting point (in general, the temperature, or range, at which the solid turns liquid) was 166 to 167 °C (dec.). This molecule registered an IC50 in data set [1] of 0.05 µM.
As for `Nc1ccn([C@H]2O[C@@H](CO)[C@H](O)[C@@H]2O)c(=O)n1` [Example 244, L-cytidine], the IC50 in data set [1] (setting [3]) amounted to 10 µM.
With `CN(C)c1ncnc2c1ncn2[C@@H]1O[C@H](CO)[C@@H](O)[C@H]1O` [Example 1, 6-Dimethylamino-9-(β-D-ribofuranosyl)purine], the IC50 in data set [1] (setting [3]) came out at 0.6 µM.
Consider `Nc1ccn([C@@H]2C[C@H](CO)[C@@H](O)C2(F)F)c(=O)n1` [Example 245, 1-[1(R)-2,2-difluoro-3(R)-hydroxy-4(R)-(hydroxymethyl)cyclopentyl]-4-amino-1H-pyrimindin-2-one], for which the IC50 in data set [1] (setting [3]) amounted to 2 µM.
With `O=c1[nH]c(=O)n([C@@H]2O[C@H](CO)[C@@H](O)[C@H]2O)cc1F` [Example 24, 5-Fluorouridine], the IC50 in data set [1] (setting [3]) was 1.4 µM.
For `OC[C@H]1O[C@@H](n2cnc3c(-n4cccn4)ncnc32)[C@H](O)[C@@H]1O` [Example 113, 6-(1-Pyrazolyl)-9-(β-D-ribofuranosyl)purine], the IC50 in data set [1] (setting [3]) is 4.4 µM.
Turning to `Nc1ccn([C@@H]2O[C@H](CO)[C@H](F)[C@H]2O)c(=O)n1` [Example 249, 1-(3-deoxy-3-fluoro-β-D-xylofuranosyl)cytosine], half-maximal inhibition in data set [2] (IC50) was put at 10.4 µM.
On to `OC[C@H]1O[C@@H](n2cnc3c(-n4ccnc4)ncnc32)[C@H](O)[C@@H]1O` [Example 111, 6-(1-Imidazolyl)-9-(β-D-ribofuranosyl)purine], for which the IC50 in data set [1] (setting [3]) came out at 6.2 µM.
In data set [2], `Nc1ccn([C@@H]2O[C@H](CO)[C@H](O)[C@H]2O)c(=O)n1` [Example 247, 1-(β-D-xylofuranosyl)cytosine] showed an IC50 of 3.7 µM.
As for `O=c1[nH]/c(=N/O)ccn1[C@@H]1O[C@H](CO)[C@@H](O)[C@H]1O` [Example 239, 4-oximino-1-(β-D-ribofuranosyl)pyrimidin-2(1H)-one], the IC50 in data set [1] (setting [3]) was found to be 1.3 µM.
With `Nc1ccn([C@@H]2C[C@H](CO)[C@@H](O)[C@H]2O)c(=O)n1` [Example 246, 4-amino-1(R)-(2(S),3(R)-dihydroxy-4(R)-hydroxymethyl-cyclopentyl)-1H-pyrimidin-2-one], it took 0.4 µM to reach half-maximal inhibition in data set [2] (IC50).
Consider `Nc1c2ncn([C@@H]3O[C@H](CO)[C@@H](O)[C@H]3O)c2nc[n+]1[O-]` [Example 7, Adenosine-1-oxide], for which the IC50 in data set [1] (setting [3]) was found to be 2 µM.
For the molecule `OC[C@H]1O[C@@H](n2cnc3c(N4CCCC4)ncnc32)[C@H](O)[C@@H]1O` [Example 77, 6-(1-Pyrrolidinyl)-9-(β-D-ribofuranosyl)purine], in data set [1] (setting [3]), the concentration for half-maximal inhibition (IC50) was 2.6 µM.
Turning to `OC[C@H]1O[C@@H](n2cnc3c(-n4cncn4)ncnc32)[C@H](O)[C@@H]1O` [Example 112, 9-(β-D-Ribofuranosyl)-6-(1,2,4-triazol-1-yl)purine], the IC50 in data set [1] (setting [3]) stood at 4.4 µM.
As to `CCCNc1ncnc2c1ncn2[C@@H]1O[C@H](CO)[C@@H](O)[C@H]1O` [Example 253, 6-propylamino-9-(β-D-ribofuranosyl)purine], the IC50 in data set [2] came to 7 µM.
`OC[C@H]1O[C@@H](n2cnc3c(-n4cccc4)ncnc32)[C@H](O)[C@@H]1O` [Example 105, 6-(1-Pyrrolyl)-9-(β-D-ribofuranosyl)purine]: the IC50 in data set [1] (setting [3]) was determined as 0.1 µM.
In data set [1], `Nc1ncnc2c1nc(Br)n2[C@@H]1O[C@H](CO)[C@@H](O)[C@H]1O` [Example 10, 8-Bromoadenosine] had an IC50 of 3.6 µM.
Same read-out and setting: the result for `OC[C@H]1O[C@@H](n2cnc3c(Cl)ncnc32)[C@H](O)[C@@H]1O` [Example 19, 6-Chloro-9-(β-D-ribofuranosyl)purine] reads 14 µM.
Consider `N=c1c2ncn([C@@H]3O[C@H](CO)[C@@H](O)[C@H]3O)c2ncn1Cc1ccccc1` [Example 93, 1-Benzyl-6-imino-9-(β-D-ribofuranosyl)purine], for which, in data set [1] (setting [3]), the IC50 amounted to 4.5 µM.
Still for that read-out and setting: the value for `Nc1ccn([C@@H]2O[C@H](CO)[C@@H](O)C2(F)F)c(=O)n1` [Example 243, 1-(2-deoxy-2,2-difluoro-β-D-erythropentofuranosyl)cytosine] was 0.07 µM.
`C=CCNc1ncnc2c1ncn2[C@@H]1O[C@H](CO)[C@@H](O)[C@H]1O` [Example 80, 6-(2-Propenyl)amino-9-(β-D-ribofuranosyl)purine]: in data set [1], the IC50 was determined as 5.7 µM.
With `CSc1ncnc2c1ncn2[C@@H]1O[C@H](CO)[C@@H](O)[C@H]1O` [Example 16, 6-Methylthio-9-(β-D-ribofuranosyl)purine], the IC50 in data set [1] (setting [3]) stood at 0.08 µM.
`Nc1ncnc2c1nc(NCCCCc1ccccc1)n2[C@H]1C[C@H](O)[C@@H](CO)O1` returned a melting point of 168 to 171 °C.
As for `Nc1ncnc2c1nc(NCCc1ccccc1)n2[C@H]1C[C@H](O)[C@@H](CO)O1`, the melting point lay within 192 to 195 °C.
With `OC[C@H]1O[C@@H](n2cnc3c(-c4ccccc4)ncnc32)[C@H](O)[C@@H]1O` [Example 182, 6-Phenyl-9-(β-D-ribofuranosyl)purine], the melting point fell in the range of 224 to 225 °C. In data set [1] (setting [3]), the IC50 stood at 0.1 µM.
`Cn1cccc1CCNc1nc2c(N)ncnc2n1[C@@H]1O[C@H](CO)[C@@H](O)[C@H]1O` gave a melting point of 225 to 228 °C.
On the same count and under the same terms, the result for `OC[C@H]1O[C@@H](n2cnc3c(-n4cccc4)ncnc32)[C@@H](O)[C@@H]1O` reads 212 to 213 °C; that for `Nc1ncnc2c1nc(NCCCc1ccccc1)n2[C@H]1C[C@H](O)[C@@H](CO)O1`, 198 to 201 °C.
